The values that follow come from ChEMBL document CHEMBL1641547, “Biologically active constituents from the fruiting body of Taiwanofungus camphoratus” (Bioorg Med Chem, 2011).

Assay [1] has as its system Daoy. The experiment in a line: Cytotoxicity against human DaOY cells after 3 days by MTT assay. Type of assay: functional. The conditions noted are these: 72 h, read-out: ED50 (the source's name).
Assay [2] is described as follows: Inhibition of NOX in fMLP-induced PMN cells assessed as ROS production.
Assay [3] deals with HEp-2. Nature of the assay: Cytotoxicity against human Hep2 cells after 3 days by MTT assay. The conditions noted are these: HEp-2, 72 h, read-out: ED50 (the source's name). Type of assay: functional.
In assay [4] the test system is MCF7. Nature of the assay: Cytotoxicity against human MCF7 cells after 3 days by MTT assay. The format is functional. The conditions noted are these: MCF7, 72 h, read-out: ED50 (the source's name).
Assay [5] concerns the target T1, Nitric oxide synthase, inducible (Mus musculus, UniProt P29477).
T1 sequence (P29477 whole entry): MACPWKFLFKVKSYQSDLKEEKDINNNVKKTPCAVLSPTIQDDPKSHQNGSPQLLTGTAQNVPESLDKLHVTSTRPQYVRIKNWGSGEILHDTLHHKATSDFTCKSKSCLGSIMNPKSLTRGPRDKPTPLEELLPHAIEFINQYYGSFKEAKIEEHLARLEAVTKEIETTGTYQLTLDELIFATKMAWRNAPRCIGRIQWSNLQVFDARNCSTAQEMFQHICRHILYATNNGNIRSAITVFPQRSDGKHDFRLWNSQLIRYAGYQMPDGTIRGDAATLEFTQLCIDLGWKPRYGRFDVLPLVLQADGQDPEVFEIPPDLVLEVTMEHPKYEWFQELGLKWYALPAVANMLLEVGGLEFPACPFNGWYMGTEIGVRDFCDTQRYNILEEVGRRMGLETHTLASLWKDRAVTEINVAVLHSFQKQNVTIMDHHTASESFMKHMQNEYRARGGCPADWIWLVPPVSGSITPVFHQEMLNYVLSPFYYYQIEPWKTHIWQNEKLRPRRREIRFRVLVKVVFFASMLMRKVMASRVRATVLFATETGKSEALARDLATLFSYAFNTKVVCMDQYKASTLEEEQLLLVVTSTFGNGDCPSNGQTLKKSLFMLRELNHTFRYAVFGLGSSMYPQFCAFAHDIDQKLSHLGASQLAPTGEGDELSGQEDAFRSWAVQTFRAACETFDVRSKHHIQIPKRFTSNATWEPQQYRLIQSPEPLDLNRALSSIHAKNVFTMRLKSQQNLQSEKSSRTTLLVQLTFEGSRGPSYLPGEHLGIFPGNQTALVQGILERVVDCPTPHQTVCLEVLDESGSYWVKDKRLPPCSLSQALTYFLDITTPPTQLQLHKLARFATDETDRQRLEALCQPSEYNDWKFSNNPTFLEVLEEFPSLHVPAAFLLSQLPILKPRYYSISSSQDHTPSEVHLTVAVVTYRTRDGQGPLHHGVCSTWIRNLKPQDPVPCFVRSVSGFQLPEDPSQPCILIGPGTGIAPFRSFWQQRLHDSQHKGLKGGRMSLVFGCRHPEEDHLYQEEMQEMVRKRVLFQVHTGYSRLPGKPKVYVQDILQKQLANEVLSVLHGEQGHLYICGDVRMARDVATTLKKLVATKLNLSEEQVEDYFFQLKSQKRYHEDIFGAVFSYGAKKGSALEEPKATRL
The experiment in a line: Inhibition of iNOS in mouse BV2 microglial cells assessed as NO production. The format is cell-based.

Assay [6] relates to HeLa. The experiment in a line: Cytotoxicity against human HeLa cells after 3 days by MTT assay. The format is functional. The conditions noted are these: 72 h, read-out: ED50 (the source's name).
Assay [7] can be described thus: Inhibition of mouse NOX activity in NADPH-induced mouse BV2 microglial cells assessed as ROS production. The conditions noted are these: BV-2.

In brackets after ≈: the same amount, converted by molar mass.

As to `C=C(CC[C@@H](C)[C@H]1CC[C@H]2C3=C(C(=O)C[C@]12C)[C@@]1(C)CCC(=O)[C@@H](C)[C@@H]1CC3=O)C(C)C(=O)O` (stereo not given in full) [ZHANKUIC ACID A], the EC50 in assay [1] is > 20 µg/mL; in assay [3], 16.6 µg/mL (≈ 35.4 µM); in assay [4], > 20 µg/mL; in assay [6], > 20 µg/mL. Also, the IC50 was 22.1 µM in assay [2] and 3.6 µM in assay [5].

`C=C(CC[C@@H](C)[C@H]1CC[C@H]2C3=C(C(=O)C[C@]12C)[C@@]1(C)CC[C@@H](O)[C@@H](C)[C@@H]1C[C@@H]3O)C(C)C(=O)O` (stereo not given in full) [CAMPHORATIN B]: the IC50 in assay [2] came out at 32.1 µM; in assay [5] it was 15.7 µM.

For `C=C(CC[C@@H](C)[C@H]1CC[C@H]2C3=C(C(=O)[C@H](O)[C@]12C)[C@@]1(C)CC[C@@H](O)[C@@H](C)[C@@H]1CC3=O)C(C)C(=O)O` (stereo not given in full) [ZHANKUIC ACID C], the EC50 in assay [1], in assay [3], in assay [4] and in assay [6] was > 20 µg/mL in each case. Moreover, the IC50 in assay [5] stood at 16.2 µM.

Consider `C=C(CC[C@@H](C)[C@H]1CC[C@H]2C3=C(C(=O)C[C@]12C)[C@@]1(C)CCC(=O)[C@@H](C)[C@@H]1CC3=O)C(C)C(=O)OC` (stereo not given in full) [ZHANKUIC ACID A METHYL ESTER], for which the EC50 in assay [1], in assay [3], in assay [4] and in assay [6] was > 20 µg/mL each time. Moreover, the results for the IC50 in assay [2] and in assay [5] were 8.4 µM and 0.6 µM, respectively.

Take `CC(C)[C@@H](C)/C=C/[C@@H](C)[C@H]1CC[C@H]2C3=CC=C4C[C@@H](O)CC[C@]4(C)[C@H]3CC[C@]12C` [ERGOSTEROL]: the IC50 was 27.9 µM in assay [2] and 30.6 µM in assay [5].

`C=C(CC[C@@H](C)[C@H]1CC[C@H]2C3=C(C(=O)C[C@]12C)[C@@]1(C)CC[C@@H](O)[C@](C)(O)[C@@H]1C[C@@H]3O)C(C)C(=O)O` (stereo not given in full) [ANTCIN K]: the EC50 in assay [1], in assay [3], in assay [4] and in assay [6] was > 20 µg/mL throughout. Besides, the IC50 in assay [2] amounted to 47.2 µM.

As to `C=C(CC[C@@H](C)[C@H]1CC[C@H]2C3=C(C(=O)C[C@]12C)[C@@]1(C)CC[C@@H](O)[C@@H](C)[C@@H]1CC3=O)C(C)C(=O)OC` (stereo not given in full) [CAMPHORATIN E], the EC50 in assay [1] came out at 5.2 µg/mL (≈ 10.7 µM); in assay [3], 7 µg/mL (≈ 14.4 µM); in assay [4], 6.6 µg/mL (≈ 13.6 µM); in assay [6], 9 µg/mL (≈ 18.6 µM).

As for `COc1cc(C)c(OC)c2c1OCO2`, the EC50 in assay [1], in assay [3], in assay [4] and in assay [6] was > 20 µg/mL each time. Besides, the IC50 in assay [2] came out at 19.9 µM.

In the case of `C=C(CC[C@@H](C)[C@H]1CC[C@H]2C3=C(C(=O)C[C@]12C)[C@@]1(C)CCC(=O)[C@@H](C)[C@@H]1CC3)C(C)C(=O)OC` (stereo not given in full) [METHYLANTCINATE A], the EC50 in assay [1], in assay [3], in assay [4] and in assay [6] was > 20 µg/mL each time. The IC50 in assay [2] amounted to 16.2 µM; in assay [5], 1.5 µM.

For the compound `C=C(CC[C@@H](C)[C@H]1CC[C@H]2C3=C(C[C@H](O)[C@]12C)[C@@]1(C)CC[C@@H](O)[C@@H](C)[C@@H]1CC3=O)C(C)C(=O)OC` (stereo not given in full) [METHYL ANTCINATE H], the EC50 in assay [1], in assay [3], in assay [4] and in assay [6] was > 20 µg/mL in each case. Besides, the figures for the IC50 in assay [2] and in assay [5] were 18.1 µM and 2.5 µM, respectively.

Take `C[C@H](/C=C/[C@H](C)[C@H](C)CO)[C@H]1CC[C@H]2C3=CC[C@H]4CC(=O)CC[C@]4(C)[C@H]3CC[C@]12C` [CAMPHORATIN I]: the IC50 worked out at 17.5 µM in assay [2] and 12.7 µM in assay [5].

For `C=C(CC[C@@H](C)[C@H]1CC[C@H]2C3=C(C(=O)C[C@]12C)[C@@]1(C)CCC(=O)[C@@H](C)[C@@H]1C[C@@H]3O)C(C)C(=O)O` (stereo not given in full) [CAMPHORATIN D], the EC50 in assay [1], in assay [3], in assay [4] and in assay [6] was > 20 µg/mL throughout. The 50% inhibitory concentration (IC50) in assay [2] was 22.6 µM; in assay [5] it was 4.2 µM.

Take `c1cc2c(cc1[C@H]1OC[C@H]3[C@@H]1CO[C@@H]3c1ccc3c(c1)OCO3)OCO2` [SESAMIN]: the EC50 in assay [1], in assay [3], in assay [4] and in assay [6] was > 20 µg/mL throughout.

Turning to `C=C(CC[C@@H](C)[C@H]1CC[C@@H]2C3=C(C(=O)C[C@@]21C)[C@@]1(C)CCC(=O)[C@@H](C)[C@@H]1CC3)C(C)C(=O)OC` (stereo not given in full) [CAMPHORATIN J], the EC50 was > 20 µg/mL in assay [1], > 20 µg/mL in assay [3], 8.7 µg/mL (≈ 18.6 µM) in assay [4] and 11.3 µg/mL (≈ 24.1 µM) in assay [6]. Further, the IC50 in assay [2] was 15.8 µM; in assay [5], 1.6 µM.

In the case of `C=C(C)C#Cc1c(OC)cc(OC)c(OC)c1C` [ANTROCAMPHIN A], the EC50 came to 5.9 µg/mL (≈ 24 µM) in assay [1], 10.5 µg/mL (≈ 42.6 µM) in assay [3], 3.4 µg/mL (≈ 13.8 µM) in assay [4] and 6.9 µg/mL (≈ 28 µM) in assay [6]. The figures for the IC50 in assay [7], in assay [2] and in assay [5] were 50.1 µM, 15.1 µM and 7.2 µM, respectively.

Consider `CC(C)[C@@H](C)/C=C/[C@@H](C)[C@H]1CC[C@@H]2[C@]1(C)CC[C@H]1[C@]23C=C[C@]2(C[C@@H](O)CC[C@]12C)OO3` [ERGOSTEROL PEROXIDE], for which the IC50 in assay [2] came out at 20.3 µM.

For `C=C(CC[C@@H](C)[C@H]1CC[C@H]2C3=C(C(=O)C[C@]12C)[C@@]1(C)CCC(=O)[C@@H](C)[C@@H]1CC3)C(C)C(=O)O` (stereo not given in full) [ANTCIN A], the EC50 is 13.2 µg/mL (≈ 29 µM) in assay [1], > 20 µg/mL in assay [3], 13.3 µg/mL (≈ 29.3 µM) in assay [4] and > 20 µg/mL in assay [6]. Besides, the IC50 in assay [2] stood at 29.2 µM; in assay [5], 4.1 µM.

As for `OC1O[C@@H](c2ccc3c(c2)OCO3)[C@@H]2CO[C@@H](c3ccc4c(c3)OCO4)[C@H]12` (stereo not given in full) [4-HYDROXYSESAMIN], the EC50 in assay [1], in assay [3], in assay [4] and in assay [6] was > 20 µg/mL in each case.

Turning to `C=C(C)C#Cc1c(C)c(OC)c(OC)c2c1OCO2` [BENZOCAMPHORIN B], in assay [2], the IC50 came to 14.4 µM.

On to `C=C(CC[C@@H](C)[C@H]1CC[C@H]2C3=C(C(=O)C[C@]12C)[C@@]1(C)CCC(=O)[C@@H](C)[C@@H]1C[C@@H]3O)C(C)C(=O)OC` (stereo not given in full) [CAMPHORATIN F], for which the EC50 is 4.4 µg/mL (≈ 9.08 µM) in assay [1], 3 µg/mL (≈ 6.19 µM) in assay [3], 7.9 µg/mL (≈ 16.3 µM) in assay [4] and 8.9 µg/mL (≈ 18.4 µM) in assay [6]. For the same compound, the IC50 in assay [2] was 11.2 µM; in assay [5] it was 2.5 µM.

For `COc1c(C)c(-c2c(C)c(OC)c3c(c2OC)OCO3)c(OC)c2c1OCO2`, the EC50 in assay [1], in assay [3], in assay [4] and in assay [6] was > 20 µg/mL each time. Besides, the IC50 in assay [2] came to 15.5 µM.

`C=C(CC[C@@H](C)[C@H]1CC[C@H]2C3=C(C(=O)C[C@]12C)[C@@]1(C)CC[C@@H](O)[C@@H](C)[C@@H]1CC3=O)C(C)C(=O)O` (stereo not given in full) [ZHANKUIC ACID B]: the EC50 in assay [1], in assay [3], in assay [4] and in assay [6] was > 20 µg/mL each time. In addition, the IC50 in assay [5] was found to be 9.6 µM.
